Target: T1, renin (plasma renin activity of human plasma) (Homo sapiens, UniProt P00797)
T1 construct: Lyophilized human plasma with 0.1% EDTA is obtained from New England Nuclear; tissue New England Nuclear Plasma Renin Activity Control; host or cells: human plasma (lyophilized, reconstituted)
T1 sequence (P00797 67-406): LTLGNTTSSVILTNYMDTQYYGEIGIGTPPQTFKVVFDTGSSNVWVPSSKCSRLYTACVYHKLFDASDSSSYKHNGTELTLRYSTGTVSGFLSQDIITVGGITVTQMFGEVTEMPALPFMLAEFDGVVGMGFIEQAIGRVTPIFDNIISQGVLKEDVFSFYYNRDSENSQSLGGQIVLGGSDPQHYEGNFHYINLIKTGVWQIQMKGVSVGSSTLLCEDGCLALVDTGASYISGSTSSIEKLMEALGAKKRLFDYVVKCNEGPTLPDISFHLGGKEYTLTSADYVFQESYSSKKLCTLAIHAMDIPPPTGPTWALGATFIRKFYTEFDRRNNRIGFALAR
Test: GAMMACOAT plasma renin activity (PRA) radioimmunoassay, inhibition of angiotensin I generation in reconstituted human plasma
Assay type: biochemical
Settings: for potency estimated from few doses: reconstituted lyophilized human plasma, 90 minutes at 37° C., estimated by plotting two inhibitor concentrations, read-out: IC50 (I50, concentration producing 50% inhibition of plasma renin activity)
Description: Lyophilized human plasma with 0.1% EDTA is obtained from New England Nuclear, North Billerica, Mass. 01862 as "Plasma Renin Activity Control". This lyophilized plasma is reconstituted, on the day of the assay, with cold sterile distilled water according to directions on the vial. The plasma renin activity (PRA) of the reconstituted plasma is assayed with "GAMMACOAT [^125 I] Plasma Renin Activity Radioimmunoassay Kit" supplied by Clinical Assays, a Division of Travenol Laboratories, Inc., Cambridge, Mass. 02139. The procedure used with these kits is carried out essentially as described in the literature which accompanies them. The initial (enzymatic generation of Angiotensin 1) step is modified slightly to accommodate the testing of renin inhibitors and to minimize the amount of plasma required to perform the assay. Thus, for every milliliter of reconstituted plasma used in the assay, there is added and vortexed 10 μl of PMSF (0.3M phenylmethylsulfonyl fluoride in ethanol) and 100 μl of maleate generation buffer, both provided in the kit. 250 μl of this mixture is then transferred to each tube used in the generation step along with 10 μl of the potential renin inhibitor suspended or dissolved in 1% Tween 80 in water. […]
In the case of renin inhibitory peptide (RIP), 100 μl of the 4° C. blank is added to a GAMMACOAT tube. […] The tubes are then counted in a gamma counter. The results of the RIP are evaluated with the Rodbard Radioimmunoassay Program and the plasma renin activity (PRA) is expressed as […]. […] In addition to I50 values, relative potencies are also calculated. A relative potency is determined by comparing the I50 of RIP to the I50 of the compound. However, it must be emphasized that relative potencies are calculated from the I50 obtained for RIP on the day the compound is assayed and not from the average I50 for RIP.
It has been determined that the GAMMACOAT-PRA assay is a suitable replacement for the RENAK assay (supplied by Hoffman-LaRoche and previously known as a diagnostic test for high renin states) to determine the activity of potential renin inhibitors.

SMILES	potency estimated from few doses [nM]	relative potency (I50 of RIP compared to I50 of the compound) (relative to RIP (H-Pro-His-Pro-Phe-His-Phe-Phe-Val-Tyr-Lys-OH) assayed on the same day)
CC[C@H](C)[C@H](NC(=O)C(F)(F)C(=O)C(CC(C)C)NC(=O)[C@H](Cc1c[nH]cn1)NC(=O)[C@H](Cc1ccccc1)NC(=O)OC(C)(C)C)C(=O)NCc1ccccn1 (stereo partly drawn) [N-tert-butyloxycarbonyl-L-phenylalanyl-L-histidyl-4-amino-2,2-difluoro-4-(2-methylpropyl)-1,3-dioxobutyl-L-isoleucyl-2-pyridylmethylamide]	1.4	–
CC[C@H](C)[C@H](NC(=O)C(F)(F)[C@H](O)[C@H](CC(C)C)NC(=O)[C@H](Cc1c[nH]cn1)NC(=O)[C@H](Cc1ccccc1)NC(=O)OC(C)(C)C)C(=O)NCc1ccccn1 [N-tert-butyloxycarbonyl-L-phenylalanyl-L-histidyl-4S-amino-2,2-difluoro-3R-hydroxy-4-(2-methylpropyl)-1-oxobutyl-L-isoleucyl-2-pyridylmethylamide]	12	1,000

— US4882420A, “Dihalo-statine substituted renin inhibitors” (The Upjohn Company, priority 1986, dated 1989)
